Drawing on patent publication US7662844B2, “Naphthylene derivatives as cytochrome P450 inhibitors” (OSI Pharmaceuticals, Inc., priority 2004, dated 2010), this text covers melting point for two compounds.

A word on the melting point: it is the temperature of the solid-liquid transition.

On to `CN1CCCC1C(c1ccc2cc(OCc3ccccc3)ccc2c1)n1ccnc1` (single isomer, unassigned) [Example 3-30a, 1-[(6-Benzyloxy-naphthalen-2-yl)-(1-methyl-pyrrolidin-2-yl)-methyl]-1H-imidazole], for which the melting point lay within 124 to 126 °C.
In the case of `CN1CCCC1C(c1ccc2cc(OCc3ccccc3)ccc2c1)n1ccnc1` (single isomer, unassigned) [Example 3-30b, 1-[(6-Benzyloxy-naphthalen-2-yl)-(1-methyl-pyrrolidin-2-yl)-methyl]-1H-imidazole] it was 110 to 112 °C.
